Data taken from patent US7842710B2, “Carboxamides” (Bayer Cropscience AG, priority 2004, dated 2010).

Assay: logP determination by HPLC on a reverse phase column (C18), EEC Directive 79/831 Annex V.A8
Format: physicochemical
Conditions: HPLC C18, 43° C.; for logP (pH 2.3): Table 1; for chromatographic logP: reverse phase HPLC column (C18), pH 2.3
Protocol: The specified logP values are determined by HPLC on a reverse phase column (C18) in accordance with EEC Directive 79/831 Annex V.A8. Temperature: 43° C. Eluents for the measurement in the acid range (pH 2.3): 0.1% aqueous phosphoric acid, acetonitrile; linearer gradient of 10% acetonitrile to 90% acetonitrile. Calibration is performed with unbranched alkyl-2-ones (with 3 to 16 carbon atoms) with known logP values (determination of the logP values based on retention times by linear interpolation between two sequential alkyl ketones).

CCC(C)SC(C)c1ccccc1NC(=O)C1=C(C)OCCS1 (centres unmarked) [compound 86]
logP (pH 2.3): 4.07

CC(SC1CCCC1)c1ccccc1NC(=O)c1ccccc1Br (centres unmarked) [compound 93]
logP (pH 2.3): 4.34

CC(C)OC(C)c1ccccc1NC(=O)c1cccnc1Cl (centres unmarked) [compound 132]
logP (pH 2.3): 2.72

CCCC(C)SC(C)c1ccccc1NC(=O)c1ccccc1I (mixture of isomers) [compound 47]
logP (pH 2.3): 4.75

CC(C)OC(C)c1ccccc1NC(=O)C1=C(C(F)(F)F)OCCS1 (centres unmarked) [compound 137]
logP (pH 2.3): 3.64

CCCC(C)SC(C)c1ccccc1NC(=O)c1ccccc1C(F)(F)F (centres unmarked) [compound 70]
logP (pH 2.3): 4.71

CC(C)SCc1ccccc1NC(=O)C1=C(C(F)(F)F)OCCS1 [compound 37]
logP (pH 2.3): 3.48

CCC(C)SC(C)c1ccccc1NC(=O)c1sc(C)nc1C(F)F (centres unmarked) [compound 78]
logP (pH 2.3): 3.95

Cn1cc(C(=O)Nc2ccccc2CO)c(C(F)(F)F)n1 [IV-1, N-[2-(hydroxymethyl)phenyl]-1-methyl-3-(trifluoromethyl)-1H-pyrazole-4-carboxamide]
chromatographic logP: 1.55

CC(C)OC(C)c1ccccc1NC(=O)c1cn(C)cc1C(F)(F)F (centres unmarked) [compound 138]
logP (pH 2.3): 5.60

Cc1nn(C)c(F)c1C(=O)Nc1ccccc1C(C)S(=O)(=O)C(C)C (centres unmarked) [compound 11]
logP (pH 2.3): 1.66

CC(C)S(=O)(=O)C(C)c1ccccc1NC(=O)c1ccccc1Br (centres unmarked) [compound 3]
logP (pH 2.3): 2.30

Cc1nn(C)cc1C(=O)Nc1ccccc1C(C)S(=O)(=O)C(C)C (centres unmarked) [compound 14]
logP (pH 2.3): 1.46

Cc1ccccc1C(=O)Nc1ccccc1C(C)SC1CCCC1 (centres unmarked) [compound 99]
logP (pH 2.3): 4.44

CCCC(C)SC(C)c1ccccc1NC(=O)c1sc(C)nc1C(F)(F)F (mixture of isomers) [compound 44]
logP (pH 2.3): 4.52

CCC(C)SC(C)c1ccccc1NC(=O)C1=C(C)OCCS1 (centres unmarked) [compound 89]
logP (pH 2.3): 4.10

CCC(C)SC(C)c1ccccc1NC(=O)c1sc(C)nc1C(F)(F)F (mixture of isomers) [compound 48]
logP (pH 2.3): 4.12

Cc1nn(C)c(F)c1C(=O)Nc1ccccc1CCOC(=O)C(Cl)Cl [compound 68]
logP (pH 2.3): 2.43

Cn1cc(C(=O)Nc2ccccc2CCOC(=O)C(Cl)Cl)c(C(F)(F)F)n1 [compound 66]
logP (pH 2.3): 2.76

CC(SC1CCCC1)c1ccccc1NC(=O)c1cn(C)nc1C(F)(F)F (centres unmarked) [compound 96]
logP (pH 2.3): 3.76

CC(C)SCc1ccccc1NC(=O)c1cn(C)nc1C(F)(F)F [compound 36]
logP (pH 2.3): 3.05

CCCC(C)SC(C)c1ccccc1NC(=O)c1c(C)nn(C)c1Cl (racemic) [compound 113]
logP (pH 2.3): 4.07

CC(SC1CCCC1)c1ccccc1NC(=O)c1cn(C)nc1C(F)F (centres unmarked) [compound 101]
logP (pH 2.3): 3.48

CCC(C)SC(C)c1ccccc1NC(=O)c1ccoc1C (centres unmarked) [compound 74]
logP (pH 2.3): 4.17

Cc1occc1C(=O)Nc1ccccc1C(C)SC1CCCC1 (centres unmarked) [compound 91]
logP (pH 2.3): 4.31

CC(C)C(=O)OCc1ccccc1NC(=O)c1cn(C)nc1C(F)(F)F [compound 55]
logP (pH 2.3): 2.74

Cc1nc(C(F)(F)F)c(C(=O)Nc2ccccc2C(C)S(=O)(=O)C(C)C)s1 (centres unmarked) [compound 9]
logP (pH 2.3): 2.35

Cc1nn(C)c(F)c1C(=O)Nc1ccccc1C(C)SC(C)C (centres unmarked) [compound 19]
logP (pH 2.3): 2.98

CCCC(C)SC(C)c1ccccc1NC(=O)c1cn(C)nc1C(F)(F)F (mixture of isomers) [compound 42]
logP (pH 2.3): 4.02

CC(C)S(=O)(=O)Cc1ccccc1[N+](=O)[O-] [VI-3, 1-[(isopropylsulfonyl)methyl]-2-nitrobenzene]
chromatographic logP: 1.63

O=C(Nc1ccccc1COC(=O)C(Cl)Cl)c1cccnc1Cl [compound 58]
logP (pH 2.3): 2.38

Cc1nn(C)c(F)c1C(=O)Nc1ccccc1C(C)SC1CCCC1 (centres unmarked) [compound 100]
logP (pH 2.3): 4.03

CC(SC1CCCC1)c1ccccc1NC(=O)c1ccccc1C(F)(F)F (centres unmarked) [compound 97]
logP (pH 2.3): 4.41

Cc1sccc1C(=O)Nc1ccccc1C(C)SC1CCCC1 (centres unmarked) [compound 90]
logP (pH 2.3): 3.16

CCCC(C)SC(C)c1ccccc1NC(=O)c1cn(C)cc1C(F)(F)F (racemic) [compound 109]
logP (pH 2.3): 4.29

CC(C)S(=O)(=O)C(C)c1ccccc1NC(=O)c1ccccc1Cl (centres unmarked) [compound 12]
logP (pH 2.3): 2.23

Cc1sccc1C(=O)Nc1ccccc1C(C)SC(C)C (centres unmarked) [compound 20]
logP (pH 2.3): 4.03

CC(C)OCc1ccccc1NC(=O)c1ccccc1C(F)(F)F [compound 54]
logP (pH 2.3): 2.51

CCC(C)SC(C)c1ccccc1NC(=O)c1ccccc1I (mixture of isomers) [compound 49]
logP (pH 2.3): 4.33

CC1=C(C(=O)Nc2ccccc2C(C)SC(C)C)SCCO1 (centres unmarked) [compound 98]
logP (pH 2.3): 3.65

Cc1occc1C(=O)Nc1ccccc1C(C)OC(C)C (centres unmarked) [compound 126]
logP (pH 2.3): 3.80

O=C(Nc1ccccc1COC(=O)C(Cl)Cl)c1ccccc1C(F)(F)F [compound 50]
logP (pH 2.3): 3.15

CC(C)OC(C)c1ccccc1NC(=O)c1cnn(C)c1C(F)F (centres unmarked) [compound 136]
logP (pH 2.3): 3.67

CCCC(C)SC(C)c1ccccc1NC(=O)c1ccccc1C (racemic) [compound 112]
logP (pH 2.3): 4.76

CC(C)OCc1ccccc1NC(=O)c1cn(C)nc1C(F)(F)F [Compound No. 60, N-[2-(isopropoxymethyl)phenyl]-1-methyl-3-(trifluoromethyl)-1H-pyrazol-4-carboxamide]
chromatographic logP: 2.85

Cn1cc(C(=O)Nc2ccccc2CO)c(C(F)(F)F)n1 [compound 178]
logP (pH 2.3): 1.61

CC(C)SC(C)c1ccccc1NC(=O)c1ccccc1I (racemic) [compound 27]
logP (pH 2.3): 3.91

CC(C)SCc1ccccc1NC(=O)c1cn(C)nc1C(F)F [compound 38]
logP (pH 2.3): 2.76

COC(C)c1ccccc1NC(=O)c1cn(C)nc1C(F)(F)F (racemic) [compound 32]
logP (pH 2.3): 2.46

Cc1nn(C)cc1C(=O)Nc1ccccc1C(C)SC(C)C (centres unmarked) [compound 17]
logP (pH 2.3): 2.53

Cn1cc(C(=O)Nc2ccccc2CCO)c(C(F)(F)F)n1 [compound 62]
logP (pH 2.3): 1.62

Cn1cc(C(=O)Nc2ccccc2COC(=O)C(Cl)Cl)c(C(F)(F)F)n1 [compound 56]
logP (pH 2.3): 2.69

CCC(C)SC(C)c1ccccc1NC(=O)c1c(C(F)(F)F)nn(C)c1F (racemic) [compound 121]
logP (pH 2.3): 3.99

CC(C)SC(C)c1ccccc1NC(=O)C1=C(C(F)(F)F)OCCS1 (racemic) [compound 30]
logP (pH 2.3): 3.76

CCC(C)SC(C)c1ccccc1NC(=O)c1cn(C)cc1C(F)(F)F (centres unmarked) [compound 88]
logP (pH 2.3): 3.92

Cc1nn(C)c(F)c1C(=O)Nc1ccccc1COC(=O)C(C)C [compound 51]
logP (pH 2.3): 2.39

CCC(C)SC(C)c1ccccc1NC(=O)c1cn(C)nc1C(F)(F)F (mixture of isomers) [compound 45]
logP (pH 2.3): 4.14

CC(C)S(=O)(=O)C(C)c1ccccc1NC(=O)C1=C(C(F)(F)F)OCCS1 (centres unmarked) [compound 10]
logP (pH 2.3): 2.39

Cc1nc(C(F)(F)F)c(C(=O)Nc2ccccc2C(C)SC2CCCC2)s1 (centres unmarked) [compound 94]
logP (pH 2.3): 4.24

CC(C)SCc1ccccc1N [III-3, 2-[1-(isopropylthio)methyl]aniline]
chromatographic logP: 1.94

CC(Cl)c1ccccc1[N+](=O)[O-] (centres unmarked) [VIII-1, 1-(1-chloroethyl)-2-nitrobenzene]
chromatographic logP: 2.87

Cc1nn(C)c(F)c1C(=O)Nc1ccccc1C(C)NC(C)C (centres unmarked) [Compound No. 40, 5-fluoro-N-{2-[1-(isopropylamino)ethyl]phenyl}-1,3-dimethyl-1H-pyrazole-4-carboxamide]
chromatographic logP: 0.58

CC(C)C(=O)OCc1ccccc1N(C(=O)c1cccnc1Cl)C(=O)C(C)C [compound 59]
logP (pH 2.3): 3.49

CCCC(C)SC(C)c1ccccc1NC(=O)c1cn(C)nc1C(F)F (centres unmarked) [compound 85]
logP (pH 2.3): 3.76

CC(=O)OC(C)(C)CCc1ccccc1NC(=O)c1ccccc1C(F)(F)F [compound 61]
logP (pH 2.3): 3.30

COC(C)c1ccccc1NC(=O)c1ccccc1C(F)(F)F (racemic) [compound 34]
logP (pH 2.3): 2.99

CCCC(C)SC(C)c1ccccc1NC(=O)c1c(C)nn(C)c1F (mixture of isomers) [compound 43]
logP (pH 2.3): 3.82

COC(C)c1cc(Cl)ccc1NC(=O)c1ccccc1C(F)(F)F (racemic) [compound 33]
logP (pH 2.3): 3.56

CC1=C(C(=O)Nc2ccccc2C(C)OC(C)C)SCCO1 (centres unmarked) [compound 128]
logP (pH 2.3): 3.47

Cc1nc(C(F)(F)F)c(C(=O)Nc2ccccc2C(C)OC(C)C)s1 (centres unmarked) [compound 133]
logP (pH 2.3): 3.65

CCCC(C)SC(C)c1ccccc1NC(=O)c1ccccc1Cl (centres unmarked) [compound 72]
logP (pH 2.3): 4.60
